This assay deals with CCHFV L protein vOTU protease domain (Crimean-Congo hemorrhagic fever virus). The assay can be described thus: CCHFV vOTU inhibition, late-stage follow-up, biochemical, fluorescence, Ub-AMC substrate, assay provider (AID 743500). The settings on record: Recombinant vOTU, Ub-AMC cleavage fluorescence, active compounds read high.

Inhibition data for 33 compounds are collected here from PubChem BioAssay AID743500 (The Scripps Research Institute Molecular Screening Center, 2014).

Active and inactive are the calls of the source. No rule for the calls is given here.

As usually defined, the inhibition is the change of the read-out against control, counted positive when it falls. As for `Cc1ccc2c(c1C)-c1c(ccc(C)c1C)C(=O)C2=O`, the inhibition (at 18.9 µM) is 66.2%.

Turning to `O=C(/C=C/c1ccc(O)cc1)c1ccc(NC2=C(N3CCCCC3)C(=O)c3ccccc3C2=O)cc1`, the inhibition (at 10.17 µM) was 41%.

For `O=C1C=C(Nc2ccccc2)c2ccccc2C1=O`, for the setting “at 15.55 µM”, the inhibition is 80.2%.

As for `COc1ccc2noc3c2c1C(=O)c1ccccc1-3`, the inhibition (at 6.28 µM) is 12.4% (inactive).

Regarding `NS(=O)(=O)c1ccc(NC2=CC(=O)C(=O)c3ccccc32)cc1`, the inhibition (at 11.51 µM) is 71.8%.

Take `O=C(OCc1nnc(-c2ccccc2)o1)c1ccc([N+](=O)[O-])s1`: the inhibition (at 26.04 µM) was 55.6%.

As to `CCn1nc(/C=C/c2ccccc2)nc2c(=O)n(C)c(=O)nc1-2`, where the note is “at 0.49 µM”, the inhibition was 99%.

`COc1cc(NC(=O)COC(=O)c2ccc([N+](=O)[O-])s2)cc(OC)c1OC`: the inhibition (at 21.72 µM) was 44.2%.

On to `COc1cc(Br)c(C(=O)c2nccc3cc(OC)c(OC)cc23)cc1OC`, for which, under “at 1.13 µM”, the inhibition is 19.1% (inactive).

Take `O=C1Cc2ccccc2C(=O)N1Cc1ccccc1`: where the note is “at 1.31 µM”, the inhibition was 49.6%.

Turning to `CC1(C)C=C2C(=NN(c3ccccc3)C(N)=C2C#N)CO1`, under “at 23.49 µM”, the inhibition was 82.1%.

As for `O=C1Cc2ccccc2C(=O)N1`, the inhibition (at 0.6 µM) is 57.1%.

`Cc1c(Cl)cnc(NC(=O)COC(=O)c2ccc([N+](=O)[O-])s2)c1Cl`: the inhibition (at 20.44 µM) was 55.3%.

Regarding `NC1=C(Cl)C(=O)c2ccc(S(N)(=O)=O)cc2C1=O`, where the note is “at 0.39 µM”, the inhibition was 63.1%.

As for `Cc1ccc(N2C(=O)[C@@H]3[C@H](C2=O)C2c4ccccc4C=CN2[C@@H]3C(=O)c2ccco2)cc1` (stereo partly drawn), for the setting “at 5.2 µM”, the inhibition was 41.3%.

On to `Nc1cc2c(cc1Br)[nH]c(=O)c1ccccc12`, for which the inhibition (at 4.57 µM) was 12.7% (inactive).

Take `COC(CNC(=O)c1ccc2c3c(onc13)-c1ccccc1C2=O)OC`: the inhibition (at 24.19 µM) is 51.7%.

For the compound `Cc1ccc(NC2=CC(=O)C(=O)c3ccccc32)cc1`, the inhibition (at 12.24 µM) is 85.2%.

As to `O=C(NC1=CC(=O)c2ccccc2C1=O)c1ccccc1`, the inhibition (at 12.37 µM) is 48.8%.

As for `O=C(COC(=O)c1ccc([N+](=O)[O-])s1)NCc1ccc(F)cc1`, the inhibition (at 40.58 µM) is 41%.

For the compound `Cn1nc(-c2ccccn2)nc2c(=O)n(C)c(=O)nc1-2`, the inhibition (at 1.16 µM) was 94%.

As for `O=C(c1ccco1)[C@@H]1[C@@H]2C(=O)N(c3ccc(Br)cc3)C(=O)[C@@H]2C2c3ccccc3C=CN21` (stereo partly drawn), where the note is “at 11.01 µM”, the inhibition is 79.7%.

With `O=C(COC(=O)c1ccc([N+](=O)[O-])s1)Nc1ccc(F)cc1`, the inhibition (at 26.34 µM) is 45.3%.

With `COc1ccccc1NC(=O)COC(=O)c1ccc([N+](=O)[O-])s1`, the inhibition (at 35.07 µM) was 53.8%.

With `CCc1cc[n+](C2=C(NS(=O)(=O)c3cccs3)C(=O)c3ccccc3C2=O)cc1`, where the note is “at 14.16 µM”, the inhibition is 18.8% (inactive).

On to `NS(=O)(=O)c1ccc(NC(=O)COC(=O)c2ccc([N+](=O)[O-])s2)cc1`, for which, under “at 29.01 µM”, the inhibition is 42.6%.

For the compound `CC1CCCC(NC(=O)COC(=O)c2ccc([N+](=O)[O-])s2)C1C` (stereo not drawn), under “at 31.32 µM”, the inhibition was 22.6%.

Turning to `O=C(NC1=C(NC2CCS(=O)(=O)C2)C(=O)c2ccccc2C1=O)c1ccccc1` (stereo not drawn), the inhibition (at 14.2 µM) is 49.8%.

For `O=c1[nH]c(Nc2ccccc2)cc2cc(Br)ccc12`, where the note is “at 1.45 µM”, the inhibition is 15.8% (inactive).

As to `COC1=C(N)C(=O)c2nc(C)ccc2C1=O`, the inhibition (at 4.98 µM) is 71.9%.

As for `CC1COCC(C)N1C1=C(Cl)C(=O)c2ccccc2C1=O` (stereo not drawn), under “at 14.67 µM”, the inhibition is 23.4%.

On to `O=C(COC(=O)c1ccc([N+](=O)[O-])s1)Nc1ncc(C(F)(F)F)cc1Cl`, for which the inhibition (at 27.79 µM) is 42.1%.

Turning to `CCOC(=O)N=Nc1c2ccccc2c2nc3no[nH]c3nc12`, the inhibition (at 7.75 µM) is 26.4%.
